From patent publication US7355074B2, “Compounds having aromatic rings and side-chain amide-functionality and a method for transporting monovalent anions across biological membranes using the same” (The University of Maryland, priority 2003, dated 2008)
Marks after values point to notes of the source that are not given here.

How the values were obtained:
[1] = pH-assisted fluorimetric transport assay with calixarene amides (HPTS-loaded liposomes); assay type: biochemical
Experimental: The ability of 1 and 2 to mediate ion flux across a lipid bilayer was studied fluorimetrically. A solution of 1 or 2 was added to a suspension of EYPC large unilamellar vesicles (LUVs) containing the pH-sensitive dye pyranine. An NaOH solution was added to the extravesicular buffer to create a gradient of approximately one pH unit. The resulting electrostatic potential, caused by proton efflux from the liposomes, can be compensated by cation influx or anion efflux, as mediated by the exogenous ligand. Ion transport across the membrane was signaled by the increase in relative fluorescence that accompanied the rise in intravesicular pH.
Liposome Preparation. EYPC HPTS-Containing LUVs, egg yolk 1-α-phosphatidylcholine (EYPC, 60 mg, […]) was dissolved in a CHCl3MeOH mixture, the solution was evaporated under reduced pressure, and the resulting thin film was dried under high vacuum for 2 h. The lipid film was hydrated in 1.2 mL of phosphate buffer (10 mM sodium phosphage, pH=6.4, 75-100 mM MX, M=Na^+, K^+, Cs^+, X=[…], SO4^2−) containing 10 μM HPTS (pyranine 8-hydroxypyrene-1,3,6-trisulfonic acid trisodium salt) for 2 h. The LUV suspension (1 mL) was submitted to high-pressure extrusion at room temperature (2) extrusions through a 0.1 μM polycarbonate membrane afforded LUVs with a diameter of 100 nm). The LUV suspension was separated from extravesicular dye by size exclusion chromatography (SEC) stationary phase: Sephadex G-10, mobile phase:phosphate buffer) and diluted with the same phosphate buffer to give a stock solution with a lipid concentration of 11 mM (assuming 100% of lipid was incorporated into liposomes).
Fluorimetric Transport Assays. pH-Assisted Transport Assays. Typically, 100 μL of HPTS-loaded vesicles (stock solution) was suspended in 1.85 mL of the corresponding buffer and placed into a fluorimetric cell. HPTS emission at 510 nm was monitored with excitation wavelengths at 403 and 460 nm simultaneously. During the experiment, 20 μL of a 0-10 mM THF solution of the compound of interest was added through an injection port, followed by injection of 21 μL of 0.5 M aqueous NaOH. Addition of the NaOH caused a pH increase of approximately 1 pH unit in the extravesicular buffer. Maximal changes in dye emission were obtained at the end of each experiment by lysis of the liposomes with detergent (40 μL of 5% aqueous Triton x100). The final transport trace was obtained as a ratio of the emission intensities monitored at 460 and 403 nm and normalized to 100% of transport.

[2] = 1H NMR binding experiment in CDCl3, HCl extraction
Experimental: FIG. 7 illustrates a series of […] spectra (400 mHz, CDCl3, 22° C.) of calixarene tetrabutylamide in the presence of different species: (A) the compound alone (5 mm); (B) the compound with 1 equiv. of Bu4 NCl; (C) the compound after washing CDCl3 solution of the compound with an aqueous solution of 0.5 m HCl; (D) after washing CDCl3 solution of the compound with an aqueous solution of 0.5 M H2SO4.
To obtain evidence for Cl^− binding by 2, ^1H NMR experiments were run in CDCl3 using n-Bu4-NCl and HCl as Cl^− sources. Anion receptors usually show chemical shift perturbation upon anion complexation, particularly for amide NH protons that hydrogen bond to the anion. […] Calix[4]arene tetrabutylamide 2 does, however, bind HCl. Thus, shaking a CDCl3 solution of 2 with aqueous HCl led to disappearance of the amide NH proton and a significant upfield shift of the […] protons (FIG. 4c).

[3] = pH-stat fluorescent transport assay with oligophenoxyacetamides (HPTS-loaded liposomes); assay type: biochemical; settings: 100 mM NaCl inside and outside; 50 μm (10 mol % ligand to lipid ratio)
Experimental: FIGS. 1A and 1B are derived from of pH-stat fluorescent assays with oligophenoxyacetamide compounds 1-6 described herein. Suspensions of EYPC LUVs containing the pH sensitive dye pyranine (ex 405 nm and 460 nm em 510 nm) in a phosphate buffer were used (0.5 mM of lipid, 10 mM NanH3-nPO4 n=1, 2, pH 6.4 100 mM NaCl inside and outside) (A) illustrates initial pseudo-first order rate constants in the presence of 5 μm of ionophores 1-6 (1 mol % injection of 20 μl of 0.5 mM DMSO solution of 1-6 into 1.9 mL of vesicular suspension was followed by injection of 21 μl of 0.5 M NaOH and final lysis of liposomes with Triton X-100; (B) illustrates initial pseudo-first order rate constants assessed for various concentrations of oligomeric ionophores 2-6. The same experimental protocol as in (A) was used. Legend for traces denotes use of oligocompounds 2, 3, 4, 5, 6.
Liposome Preparation for Fluorimetric Assays. Egg yolk L-α-phosphatidylcholine (EYPC ethanol solution, […], 79 μmol) was dissolved in a CHCl3/MeOH mixture, the solution was evaporated under reduced pressure and the resulting thin film was dried under high vacuum for 2 h. The lipid film was hydrated in 1.2 mL of phosphate buffer (10 mM sodium phosphate, pH=6.4, 75-100 mM MnX, M=N^+, K^+, X=Cl^−, SO4^2−, n=1,2) containing 10 μM HPTS (pyranine, 8-hydroxypyrene-1,3,6-trisulfonic acid trisodium salt) for 40 min. During hydration, the suspension was submitted to 5 freeze-thaw cycle (liquid nitrogen, water at rt). The large multilamellar liposome suspension (1 mL) was submitted to high-pressure extrusion at rt (21 extrusions through a 0.1 μm polycarbonate membrane afforded a suspension of LUVs with an average diameter of 100 nm). The LUV suspension was separated from extravesicular dye by size exclusion chromatography (SEC) (stationary phase: Sephadex G-10, mobile phase: phosphate buffer) and diluted with the same phosphate buffer to give a stock solution with a lipid concentration of 11 mM (assuming 100% of lipid was incorporated into liposomes).
pH-state transport assays. Typically, 100 μL of HPTS-loaded vesicles (stock solution) was suspended in 1.9 mL of the corresponding buffer and placed into a fluorimetric cell. The emission of HPTS at 510 nm was monitored with excitation wavelengths at 403 and 460 nm simultaneously. During the experiment, 20 μL of a 0-10 mM DMSO solution of the compounds of interest was added (through an injection port), followed by injection of 21 μL of 0.5 M aqueous NaOH. […] Maximal possible changes in dye emission were obtained at the end of each experiment by lysis of the liposomes with detergent (40 μL of 5% aqueous Triton X100). The final transport trace was obtained as a ratio of the emission intensities monitored at 460 and 403 nm and normalized to 100% of transport. Pseudo-first order rate constants were calculated from slopes of the plot of In([H^+ins]−[H^+out]) versus time, here [H^+ins] and [H^+out] are the intravesicular and extravesicular proton concentrations, respectively. The [H^+out] was assumed to remain constant over the course of the experiment, while [H^+ins] values were calculated for each point from the HPTS emission intensities according to the calibration equation pH=1.1684·log(Io/Il)+6.9807, where Io is the emission intensity with excitation at 460 nm and Il is emission intensity with excitation at 403 nm. The calibration was performed by measuring the HPTS emission intensities and the pH values of a […] HPTS solution in 10 mM phosphate buffer containing 100 mM NaCl (see FIG. s3). The absolute values for rate constants varied depending on the age of the vesicular solution and the actual stock solution of liposomes used.

[4] = intravesicular pH of LUVs experiencing a Cl- gradient (calixarene amides); assay type: biochemical; settings: NaCl-loaded LUVs in isosmotic Na2SO4 buffer
Experimental: FIG. 8 illustrates changes in intravesicular pH upon addition of calixarene tetrabutylamide and calixarene octabutylamide to NaCl^+ loaded vesicles suspended in a sulfate phosphate buffer (emission of HPTS is used to monitor the pH changes in LUVs). At t=60 s, 20 μL of 500 μM of calixarene tetrabutylamide 2 (top trace) or the octabutylamide 3 (bottom trace) was added to 1.95 mL of a LUV suspension to give 1:100 ligand:lipid molar ratio. At t=500 s, 40 μL of 5% Triton X-100 was added. Intravesicular pH values were obtained as a function of the ratio of HPTS emission intensities at 510 nm, when excited at […]. The calibration was performed by measuring the HPTS emission intensities and the pH values of a […] HPTS solution in 10 mM phosphate buffer containing 100 mM NaCl. The calibration equation obtained (pH=1.1684×log (I0I1)+6.9807, r=0.998, where I0 is the emission intensity with excitation at […]) was used to convert the emission intensities into actual pH values.
The pH reached its maximum 250 s after addition of 2 and held constant until the liposomes were lysed with detergent. […] In effect, compound 2 moves […] along with Cl^− down the chloride gradient, consequently building a pH gradient across the membrane. Therefore, NaCl filled vesicles lose Cl^− and H^+ upon addition of 2 and become more alkaline.
Calcein-Release Assay. Calcein-loaded vesicles (100 μL of the stock solution), filled with a saline phosphate buffer (10 mM sodium phosphate, pH 6.4, […] NaCl), were suspended in 1.85 mL of an isoosmotic phosphate sulfate buffer (10 mM sodium phosphate, pH 6.4^−75 mM (Na2SO4) and placed into a fluorimetric cell. HPTS emission at 510 nm was monitored with excitation wavelengths at 403 and 460 nm simultaneously. During the experiment, 20 μL of a 0-500 μM THF solution of the compound of interest was added through an injection port. Intravesicular pH values were obtained as a function of the ratio of HPTS emission intensities at 510 nm, when excited at 403 and 460 nm. […]

HCl binding [2]	SMILES	ion transport ([1]; 50 μM)	transport activity [3]	drop in rate constant on changing extravesicular electrolyte from NaCl to CsCl [1] [fold]	transport activity when buffer changed from NaCl to Na2SO4 [1]	Initial Pseudo-first Order Transport Rate Constants, Na2SO4 ([1]; 5 μM, 100 mM Na2SO4 inside pH 6.4 and outside pH 7.4, not corrected for unmediated exchange)	Initial Pseudo-first Order Transport Rate Constants, CsCl ([1]; 5 μM, 100 mM NaCl inside pH 6.4, 100 mM CsCl outside pH 7.4, not corrected for unmediated exchange)	Initial Pseudo-first Order Transport Rate Constants, KCl ([1]; 5 μM, 100 mM NaCl inside pH 6.4, 100 mM KCl outside pH 7.4, not corrected for unmediated exchange)	Initial Pseudo-first Order Transport Rate Constants, NaCl ([1]; 5 μM, 100 mM NaCl inside pH 6.4, 100 mM NaCl outside pH 7.4, not corrected for unmediated exchange)	rate constant k of ion transport ([1]; Na2SO4 loaded vesicles in isotonic buffer) [s⁻¹]	rate constant k of ion transport ([1]; NaCl buffer) [s⁻¹]	cation selectivity of ion transport ([1]; buffers containing Na, K or Cs)	change of intravesicular pH / pH gradient formation [4]
no HCl binding	CCCCNC(=O)COc1ccccc1 [Monomer 1, N-butyl-2-phenoxyacetamide]	no ion transport	some activity										
	CCCCN(CCCC)C(=O)COc1c2cccc1Cc1cccc(c1OCC(=O)N(CCCC)CCCC)Cc1cccc(c1OCC(=O)N(CCCC)CCCC)Cc1cccc(c1OCC(=O)N(CCCC)CCCC)C2 [calix[4]arene octabutylamide 3, Calix[4]arene Octabutylamide]			3.5	still mediated significant ion transport	9.1^b,d ×10^−3 s^−1	5.4^b,c ×10^−3 s^−1	12^b,c ×10^−3 s^−1	19^b,c ×10^−3 s^−1	0.0091	0.019	discriminates between monovalent cations	did not result in formation of a pH gradient
